Data on 3 compounds can be found in patent US12275731B2, “Azaindole inhibitors of wild-type and mutant forms of LRRK2” (DANA-FARBER CANCER INSTITUTE, INC., priority 2018, dated 2025).

Structures are written as SMILES.

Test in all cases: KinomeScan profiling
Type in all cases: binding

The target of one assay is T1, STK16 (Homo sapiens, UniProt O75716).
T1 construct: purchased KinomeScan® (panel service)
Particulars: STK16, 1 μM; read-out: % control. The procedure, abridged:
(§1)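 Single-point competition binding screen: 1 μM, DMSO, 468 kinases. Results reported as % control from RLU, normalised to DMSO and positive-control wells. Activity threshold: <35% control.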

The next assay has as its target YANK1 (Homo sapiens, UniProt Q8WU08). Particulars: YANK1, 1 μM; read-out: % control. Put shortly: as §1
A further assay addresses BUB1 (Homo sapiens, UniProt O43683). Particulars: BUB1, 1 μM; read-out: % control. Put shortly: as §1
For assay [1], the target named is T2, ABL1(H396P)-nonphosphorylated (Homo sapiens, UniProt P00519, H396P).
T2 construct: purchased KinomeScan®
Particulars: read-out: % control. The procedure, abridged: as §1

In a further assay the target is T3, INSRR (Homo sapiens, UniProt P14616).
T3 construct: purchased KinomeScan®
Particulars: read-out: % control. The procedure, abridged:
as §1

A further assay has as its target T4, ZAP70 (Homo sapiens, UniProt P43403).
T4 sequence (P43403 1-619): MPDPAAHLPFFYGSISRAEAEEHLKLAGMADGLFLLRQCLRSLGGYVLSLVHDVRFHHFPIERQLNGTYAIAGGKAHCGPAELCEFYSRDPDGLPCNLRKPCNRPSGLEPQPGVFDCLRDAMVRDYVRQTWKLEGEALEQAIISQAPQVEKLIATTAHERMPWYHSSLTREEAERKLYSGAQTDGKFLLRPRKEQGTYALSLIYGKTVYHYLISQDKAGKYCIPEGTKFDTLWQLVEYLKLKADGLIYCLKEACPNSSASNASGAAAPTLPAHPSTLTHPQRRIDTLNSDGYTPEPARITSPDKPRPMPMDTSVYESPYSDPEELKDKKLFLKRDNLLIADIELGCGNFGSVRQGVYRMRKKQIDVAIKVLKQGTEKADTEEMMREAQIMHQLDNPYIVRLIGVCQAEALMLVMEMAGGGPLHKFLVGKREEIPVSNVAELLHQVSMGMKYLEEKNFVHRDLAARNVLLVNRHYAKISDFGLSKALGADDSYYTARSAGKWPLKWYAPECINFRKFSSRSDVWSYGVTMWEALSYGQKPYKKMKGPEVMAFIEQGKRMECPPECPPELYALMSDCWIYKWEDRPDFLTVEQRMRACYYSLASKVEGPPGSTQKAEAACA
Particulars: ZAP70, 1 μM; read-out: % control. The procedure, abridged:
as §1

For the next assay, the target named is T5, p38-gamma (Homo sapiens, UniProt P53778).
T5 sequence (P53778 1-367): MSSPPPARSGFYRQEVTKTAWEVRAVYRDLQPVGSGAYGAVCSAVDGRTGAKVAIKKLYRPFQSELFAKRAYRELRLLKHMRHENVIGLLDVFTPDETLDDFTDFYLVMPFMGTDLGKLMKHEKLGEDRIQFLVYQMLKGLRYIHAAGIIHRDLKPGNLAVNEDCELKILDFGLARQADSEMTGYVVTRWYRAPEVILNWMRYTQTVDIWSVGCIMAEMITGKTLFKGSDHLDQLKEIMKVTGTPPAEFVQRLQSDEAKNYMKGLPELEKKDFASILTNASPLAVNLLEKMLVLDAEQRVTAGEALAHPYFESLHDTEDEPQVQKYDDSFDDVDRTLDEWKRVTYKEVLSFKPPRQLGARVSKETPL
Particulars: read-out: % control. Put shortly: as §1

Another assay concerns the target T6, PIK3CA(M1043I) (Homo sapiens, UniProt P42336, M1043I).
T6 construct: purchased KinomeScan® (panel service)
Particulars: read-out: % control. The procedure, abridged: as §1

The target of a further assay is CDKL1 (Homo sapiens, UniProt Q00532). Particulars: CDKL1, 1 μM; read-out: % control. The procedure, abridged: as §1
In another assay the target is T7, KIT(D816H) (Homo sapiens, UniProt P10721, D816H).
T7 construct: purchased KinomeScan®
Particulars: read-out: % control. The procedure, abridged: as §1

The target of the next assay is BRK (Homo sapiens, UniProt Q13882). Particulars: read-out: % control. The procedure, abridged: as §1
A further assay addresses CDK9 (Homo sapiens, UniProt P50750). Particulars: CDK9, 1 μM; read-out: % control. The procedure, abridged:
as §1

The next assay concerns the target RET (Homo sapiens, UniProt P07949). Particulars: read-out: % control. The procedure, abridged: as §1
Another assay addresses TRKC (Homo sapiens, UniProt Q16288). Particulars: read-out: % control. Put shortly:
as §1

The next assay has as its target T8, SYK (Homo sapiens, UniProt P43405).
T8 construct: purchased KinomeScan® (panel service)
Particulars: read-out: % control. Put shortly:
as §1

The target in a further assay is T9, GRK1 (Homo sapiens, UniProt Q15835).
T9 sequence (Q15835 1-563): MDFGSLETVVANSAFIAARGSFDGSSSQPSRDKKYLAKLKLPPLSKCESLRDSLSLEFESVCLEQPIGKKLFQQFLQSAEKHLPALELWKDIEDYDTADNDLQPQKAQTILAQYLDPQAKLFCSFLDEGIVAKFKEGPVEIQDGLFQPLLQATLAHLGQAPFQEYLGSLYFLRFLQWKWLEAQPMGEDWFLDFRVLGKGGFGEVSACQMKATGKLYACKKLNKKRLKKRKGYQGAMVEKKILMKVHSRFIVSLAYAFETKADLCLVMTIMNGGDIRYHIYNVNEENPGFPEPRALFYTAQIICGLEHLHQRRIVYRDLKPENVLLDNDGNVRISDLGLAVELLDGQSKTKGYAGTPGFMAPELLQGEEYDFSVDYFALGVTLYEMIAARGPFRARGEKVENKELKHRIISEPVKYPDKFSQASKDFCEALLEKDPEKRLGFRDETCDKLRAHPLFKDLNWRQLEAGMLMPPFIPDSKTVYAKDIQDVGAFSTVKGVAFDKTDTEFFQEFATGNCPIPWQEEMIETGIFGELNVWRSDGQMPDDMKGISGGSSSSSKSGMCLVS
Particulars: GRK1, 1 μM; read-out: % control. Put shortly: as §1

T3 sequence (P14616 27-1297): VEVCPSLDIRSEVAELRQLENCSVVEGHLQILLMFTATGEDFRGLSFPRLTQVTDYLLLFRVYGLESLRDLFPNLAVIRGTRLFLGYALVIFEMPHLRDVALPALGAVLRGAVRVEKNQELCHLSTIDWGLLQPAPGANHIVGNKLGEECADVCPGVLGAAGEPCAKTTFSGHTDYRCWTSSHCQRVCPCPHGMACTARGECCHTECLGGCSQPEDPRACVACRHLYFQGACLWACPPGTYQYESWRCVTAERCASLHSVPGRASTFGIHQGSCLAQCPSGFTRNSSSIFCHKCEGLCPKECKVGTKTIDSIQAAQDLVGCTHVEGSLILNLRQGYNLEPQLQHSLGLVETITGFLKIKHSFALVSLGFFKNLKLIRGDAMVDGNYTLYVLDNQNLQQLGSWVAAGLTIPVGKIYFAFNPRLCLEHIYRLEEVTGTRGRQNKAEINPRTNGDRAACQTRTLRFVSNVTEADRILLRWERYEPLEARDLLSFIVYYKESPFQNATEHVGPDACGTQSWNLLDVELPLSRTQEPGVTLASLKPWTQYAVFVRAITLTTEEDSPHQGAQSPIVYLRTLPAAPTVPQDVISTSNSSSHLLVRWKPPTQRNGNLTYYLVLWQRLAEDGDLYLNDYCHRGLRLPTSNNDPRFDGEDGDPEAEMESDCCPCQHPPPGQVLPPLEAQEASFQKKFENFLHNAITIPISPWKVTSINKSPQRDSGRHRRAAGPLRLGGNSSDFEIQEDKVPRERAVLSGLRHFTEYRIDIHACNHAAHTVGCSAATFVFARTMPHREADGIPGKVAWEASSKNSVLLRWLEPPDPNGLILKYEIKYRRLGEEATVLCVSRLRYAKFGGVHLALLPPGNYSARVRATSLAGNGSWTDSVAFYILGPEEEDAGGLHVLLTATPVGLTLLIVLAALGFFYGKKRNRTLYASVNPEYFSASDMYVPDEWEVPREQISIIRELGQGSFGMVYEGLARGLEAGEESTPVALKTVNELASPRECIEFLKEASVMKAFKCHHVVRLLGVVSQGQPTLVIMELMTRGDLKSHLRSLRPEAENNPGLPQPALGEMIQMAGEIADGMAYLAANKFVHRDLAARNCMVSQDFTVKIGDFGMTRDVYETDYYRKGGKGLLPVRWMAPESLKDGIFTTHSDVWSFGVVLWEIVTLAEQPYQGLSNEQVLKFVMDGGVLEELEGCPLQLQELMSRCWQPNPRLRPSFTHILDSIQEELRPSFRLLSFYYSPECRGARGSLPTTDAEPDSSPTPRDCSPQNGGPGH
T7 sequence (P10721 26-976 D816H): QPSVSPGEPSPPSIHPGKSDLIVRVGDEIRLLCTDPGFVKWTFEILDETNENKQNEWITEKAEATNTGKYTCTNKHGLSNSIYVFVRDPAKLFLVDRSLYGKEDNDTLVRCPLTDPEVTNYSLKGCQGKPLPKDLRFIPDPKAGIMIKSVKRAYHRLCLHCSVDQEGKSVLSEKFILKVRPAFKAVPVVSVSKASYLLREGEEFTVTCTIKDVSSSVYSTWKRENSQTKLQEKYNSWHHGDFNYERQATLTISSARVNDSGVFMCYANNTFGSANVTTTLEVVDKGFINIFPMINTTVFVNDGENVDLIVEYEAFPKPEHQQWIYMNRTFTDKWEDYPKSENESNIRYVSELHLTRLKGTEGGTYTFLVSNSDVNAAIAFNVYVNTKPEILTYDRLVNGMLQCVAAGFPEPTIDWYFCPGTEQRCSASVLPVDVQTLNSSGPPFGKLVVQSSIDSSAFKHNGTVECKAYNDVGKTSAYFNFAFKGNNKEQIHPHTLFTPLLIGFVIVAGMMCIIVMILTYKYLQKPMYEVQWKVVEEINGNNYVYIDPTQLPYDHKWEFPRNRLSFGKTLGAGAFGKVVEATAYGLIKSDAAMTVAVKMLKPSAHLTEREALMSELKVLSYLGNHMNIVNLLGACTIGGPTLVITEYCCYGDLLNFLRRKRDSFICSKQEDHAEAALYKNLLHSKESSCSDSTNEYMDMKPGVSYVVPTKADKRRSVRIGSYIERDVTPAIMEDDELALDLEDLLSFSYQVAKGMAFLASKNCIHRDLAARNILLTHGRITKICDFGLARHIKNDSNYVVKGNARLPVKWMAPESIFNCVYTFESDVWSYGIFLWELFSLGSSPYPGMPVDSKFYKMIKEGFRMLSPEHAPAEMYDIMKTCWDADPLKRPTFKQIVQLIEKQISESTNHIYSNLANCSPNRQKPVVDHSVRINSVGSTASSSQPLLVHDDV
Chain of BRK (Q13882 whole entry): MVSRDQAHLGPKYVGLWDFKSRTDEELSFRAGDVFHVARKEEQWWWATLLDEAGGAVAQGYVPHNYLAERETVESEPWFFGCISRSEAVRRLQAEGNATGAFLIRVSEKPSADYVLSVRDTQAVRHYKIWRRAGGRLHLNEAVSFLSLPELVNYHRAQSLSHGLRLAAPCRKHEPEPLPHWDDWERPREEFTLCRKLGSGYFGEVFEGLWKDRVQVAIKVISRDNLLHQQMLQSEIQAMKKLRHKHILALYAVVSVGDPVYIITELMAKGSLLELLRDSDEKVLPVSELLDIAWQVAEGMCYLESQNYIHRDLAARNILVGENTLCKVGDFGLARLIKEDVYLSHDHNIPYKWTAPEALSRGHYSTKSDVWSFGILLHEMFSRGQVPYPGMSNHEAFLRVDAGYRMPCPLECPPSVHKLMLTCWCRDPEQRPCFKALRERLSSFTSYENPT
T6 sequence (P42336 whole entry M1043I): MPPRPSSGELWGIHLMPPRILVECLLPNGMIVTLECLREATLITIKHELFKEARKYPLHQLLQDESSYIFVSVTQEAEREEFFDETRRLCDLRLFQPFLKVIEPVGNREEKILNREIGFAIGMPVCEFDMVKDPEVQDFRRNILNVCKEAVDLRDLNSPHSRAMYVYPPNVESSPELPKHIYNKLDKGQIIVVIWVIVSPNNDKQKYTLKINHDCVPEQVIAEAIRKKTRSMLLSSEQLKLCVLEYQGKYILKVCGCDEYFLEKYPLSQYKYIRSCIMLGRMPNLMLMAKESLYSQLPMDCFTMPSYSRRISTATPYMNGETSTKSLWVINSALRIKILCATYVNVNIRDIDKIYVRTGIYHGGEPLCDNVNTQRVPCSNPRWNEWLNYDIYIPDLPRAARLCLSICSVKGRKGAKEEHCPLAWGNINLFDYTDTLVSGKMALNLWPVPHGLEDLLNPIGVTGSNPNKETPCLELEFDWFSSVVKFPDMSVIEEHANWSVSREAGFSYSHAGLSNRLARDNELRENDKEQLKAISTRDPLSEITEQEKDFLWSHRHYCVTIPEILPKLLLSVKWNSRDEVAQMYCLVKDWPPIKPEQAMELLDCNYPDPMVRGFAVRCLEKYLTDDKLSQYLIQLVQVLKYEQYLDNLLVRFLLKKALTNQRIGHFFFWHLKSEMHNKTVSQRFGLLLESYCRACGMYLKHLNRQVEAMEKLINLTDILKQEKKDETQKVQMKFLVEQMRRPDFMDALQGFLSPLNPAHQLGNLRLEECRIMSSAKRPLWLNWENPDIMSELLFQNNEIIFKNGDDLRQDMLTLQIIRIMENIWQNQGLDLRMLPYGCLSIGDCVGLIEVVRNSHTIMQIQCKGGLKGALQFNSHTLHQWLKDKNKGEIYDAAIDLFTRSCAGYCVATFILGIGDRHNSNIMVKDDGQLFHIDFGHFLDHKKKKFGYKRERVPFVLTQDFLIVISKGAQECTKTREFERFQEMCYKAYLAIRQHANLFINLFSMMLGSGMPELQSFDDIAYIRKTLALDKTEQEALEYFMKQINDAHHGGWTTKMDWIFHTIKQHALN
Chain of CDKL1 (Q00532 whole entry): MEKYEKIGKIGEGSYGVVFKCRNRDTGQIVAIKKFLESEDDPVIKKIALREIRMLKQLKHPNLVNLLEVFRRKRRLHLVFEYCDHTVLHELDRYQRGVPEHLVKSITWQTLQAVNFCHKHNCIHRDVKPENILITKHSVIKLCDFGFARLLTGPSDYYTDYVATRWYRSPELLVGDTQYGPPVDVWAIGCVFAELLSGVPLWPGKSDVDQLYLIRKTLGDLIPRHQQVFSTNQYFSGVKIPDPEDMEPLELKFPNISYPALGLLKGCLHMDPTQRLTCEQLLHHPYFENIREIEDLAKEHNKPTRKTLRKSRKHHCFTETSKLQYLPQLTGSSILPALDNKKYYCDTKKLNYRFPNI
Chain of CDK9 (P50750 whole entry): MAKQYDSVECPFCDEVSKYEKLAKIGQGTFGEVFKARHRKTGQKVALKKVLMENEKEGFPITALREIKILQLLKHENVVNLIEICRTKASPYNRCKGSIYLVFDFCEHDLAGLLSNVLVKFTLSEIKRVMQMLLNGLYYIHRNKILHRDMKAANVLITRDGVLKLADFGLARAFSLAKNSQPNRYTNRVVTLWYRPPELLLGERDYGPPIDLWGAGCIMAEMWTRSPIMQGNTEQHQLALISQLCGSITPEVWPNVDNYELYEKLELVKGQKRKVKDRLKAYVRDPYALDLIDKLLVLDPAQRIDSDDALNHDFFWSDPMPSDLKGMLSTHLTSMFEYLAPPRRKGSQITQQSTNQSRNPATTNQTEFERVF
T1 sequence (O75716 whole entry): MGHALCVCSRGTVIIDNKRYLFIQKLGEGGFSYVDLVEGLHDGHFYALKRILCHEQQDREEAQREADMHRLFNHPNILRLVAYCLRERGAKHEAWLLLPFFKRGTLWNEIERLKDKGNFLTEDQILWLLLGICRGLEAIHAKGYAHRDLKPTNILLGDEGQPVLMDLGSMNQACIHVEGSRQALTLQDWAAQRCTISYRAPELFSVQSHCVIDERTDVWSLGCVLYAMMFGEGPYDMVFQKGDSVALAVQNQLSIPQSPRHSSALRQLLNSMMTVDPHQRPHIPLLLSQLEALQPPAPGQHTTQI

Take `CNc1c(-c2cnn([C@H]3CCN(C(C)=O)C[C@@H]3F)c2)cnc2[nH]cc(Cl)c12` [Compound 77, 1-((3S,4S)-4-(4-(3-chloro-4-(methylamino)-1H-pyrrolo[2,3-b]pyridin-5-yl)-1H-pyrazol-1-yl)-3-fluoropiperidin-1-yl)ethan-1-one]: the remaining binding at 1 µM on STK16 worked out at 2.9%; at YANK1, 100%; at BUB1, 80%; in [1], 36%; on INSRR, 92%; at ZAP70, 100%. In addition, the remaining binding at 1 µM on p38-gamma was 97%; on PIK3CA(M1043I), 66%; at CDKL1, 76%; on KIT(D816H) it was 51%; on BRK it was 95%; at CDK9, 83%. Also, the remaining binding at 1 µM on RET came out at 27%; on TRKC it was 51%; on SYK it was 100%; at GRK1 it was 60%.
On to `CNc1c(-c2ccc(C(=O)N3CCC(N4CCOCC4)CC3)cc2)cnc2[nH]cc(Cl)c12` [Compound 96, (4-(3-chloro-4-(methylamino)-1H-pyrrolo[2,3-b]pyridin-5-yl)phenyl)(4-morpholinopiperidin-1-yl)methanone], for which the remaining binding at 1 µM worked out at 2% at STK16; 100% on YANK1; 86% on BUB1; 76% in assay [1]; 96% on INSRR; 100% on ZAP70. The remaining binding at 1 µM on p38-gamma turned out to be 92%; at PIK3CA(M1043I), 81%; on CDKL1, 78%; on KIT(D816H) it was 75%; on BRK, 78%; on CDK9, 87%. Further, the remaining binding at 1 µM came out at 80% on RET, 82% on TRKC, 100% at SYK and 63% at GRK1.
Regarding `O=C(c1ccc(-c2cnc3[nH]cc(Cl)c3c2NC2CCCC2)cc1)N1CCC(N2CCOCC2)CC1` [Compound 101, (4-(3-chloro-4-(cyclopentylamino)-1H-pyrrolo[2,3-b]pyridin-5-yl)phenyl)(4-morpholinopiperidin-1-yl)methanone], the remaining binding at 1 µM at STK16 was 13%; on YANK1, 100%; on BUB1, 100%; in assay [1] it was 100%; at INSRR, 84%; on ZAP70, 55%. Also, the remaining binding at 1 µM at p38-gamma stood at 79%; at PIK3CA(M1043I) it was 100%; on CDKL1, 100%; at KIT(D816H), 92%; at BRK it was 86%; on CDK9, 96%. For the same compound, the remaining binding at 1 µM was 85% at RET, 100% on TRKC, 100% on SYK and 84% on GRK1.
